In BindingDB's records for doi:10.1021/jm9603274 (R. W. Johnson Pharmaceutical Research Institute, 1996) one finds IC50 data, which are given here for two compounds.

Structures are written as SMILES.

As a reminder, the IC50 is the concentration needed to halve the response being measured.

The nature of the test: Inhibitory activity against thrombin induced platelet aggregation.

The compound `CN[C@H](Cc1ccccc1)C(=O)N1CCC[C@H]1C(=O)N[C@H](C=O)CCCN=C(N)N` [1-(2-Methylamino-3-phenyl-propionyl)-pyrrolidine-2-carboxylic acid (1-formyl-4-guanidino-butyl)-amide] returned an IC50 of 23 nM. In the case of `CN[C@H](Cc1ccccc1)C(=O)N1CCC[C@H]1C(=O)N[C@@H](CCCN=C(N)N)C(=O)c1nc2ccccc2s1` [RWJ-50353] it was 23 nM.
